The values that follow come from patent publication US7964614B2, “Systemic inflammatory markers as diagnostic tools in the prevention of atherosclerotic diseases and as tools to aid in the selection of agents to be used for the prevention and treatment of atherosclerotic disease” (The Brigham and Women's Hospital, Inc., priority 1997, dated 2011).

Structures are written as SMILES.

Assay [1] concerns apparently healthy men (US male physicians). To be noted: whole trial population, 325 mg aspirin on alternate days vs placebo (reference 1); cited from earlier work.
The test system is the same in assay [2]. The assay is described as follows: Physicians' Health Study: randomized, double-blind, placebo controlled trial of aspirin in primary prevention; risk of first myocardial infarction, stratified by baseline C-reactive protein quartile. In kind it is in vivo, human. To be noted: 325 mg aspirin on alternate days vs placebo, events prior to Jan. 25, 1988. As for the experimental part: The Physicians' Health Study is a randomized, double-blind, placebo controlled, 2×2 factorial trial of aspirin and beta-carotene in the primary prevention of cardiovascular disease and cancer. A total of 22,071 US male physicians aged 40 to 84 years in 1982 with no history of myocardial infarction, stroke, transient ischemic attack, or cancer were assigned to one of four treatment groups: 325 mg aspirin on alternate days (Bufferin, provided by Bristol-Myers), 50 mg of beta-carotene on alternate days (Lurotin, provided by BASF Corporation), both, or neither. The aspirin component of the PHS was terminated early on Jan. 25, 1988 primarily due to a statistically extreme 44 percent reduction in risk of first infarction in the aspirin group.^1 The beta-carotene component continued to scheduled termination on Dec. 31, 1995.^2 Hospital records (and for fatal events, death certificates and necropsy reports) were requested for all reported cases of myocardial infarction, stroke, and venous thrombosis. Records were reviewed by a committee of physicians using standardized criteria to confirm or refute reported events. Endpoints reviewers were blinded to treatment assignment. Reported myocardial infarction was confirmed if the event met World Health Organization criteria of symptoms plus either elevated enzymes or characteristic electrocardiographic changes. Silent myocardial infarctions were not included since they could not be dated accurately. Deaths due to coronary disease were confirmed based on autopsy reports, symptoms, circumstances of death, and prior history of coronary disease. Reported stroke was confirmed based on medical records showing neurological deficit of sudden or rapid onset persisting for more than 24 hours or until death. Strokes were classified as ischemic or hemorrhagic. Computed tomography was available for more than 95 percent of confirmed strokes. Reported deep venous thrombosis was confirmed by documentation of a positive venography study or a positive ultrasound study; deep venous thrombosis documented only by impedance plethysmography or Doppler examination without ultrasound were not confirmed. […] Using these methods, we evaluated 543 cases and 543 controls in this prospective nested case-control design. Means or proportions for baseline risk factors were calculated for cases and controls. […] Because C-reactive protein levels are skewed, median levels were computed and the significance of any differences in median values between cases and controls assessed using Wilcoxon's Rank Sum Test. […] Similar models were employed to adjust for measured baseline levels of total and HDL cholesterol, triglyceride, lipoprotein(a), tPA antigen, fibrinogen, D-dimer, and homocysteine. […]

As for `CC(=O)Oc1ccccc1C(=O)O` [aspirin], in assay [1], the “reduction in risk of first infarction in the aspirin group” value is listed as 44%. In addition, the “reduction in risk of myocardial infarction associated with aspirin use” value in assay [2] (first (lowest) quartile of baseline C-reactive protein) worked out at 13.9%; in assay [2] (fourth (highest) quartile of baseline C-reactive protein), 55.7%; in assay [2] (second quartile of baseline C-reactive protein), 33.4%; in assay [2] (third quartile of baseline C-reactive protein) it was 46.3%.
